Experimental data from patent US20190311703A1, “ACOUSTIC TRAUMA SYSTEM FOR LARVAL FISH” (WASHINGTON STATE UNIVERSITY, priority 2018, published 2019).
Entries after “also recorded” stand apart in the source; their conditions may differ. Like-named read-outs stand apart in the source and are kept apart here. Where a SMILES comes first, the peptide text is derived from it. The star is where a group is joined. Cbz = O=C(OCc1ccccc1)*; CH2F = FC*

Key:
lateral line hair cells = assay: Cavitation (acoustic trauma)-induced lateral line hair cell damage in larval zebrafish, hair cell survival assessment; type: in vivo; conditions: for protection from cavitation-induced hair cell damage (hair cell survival score vs DMSO control): blinded mini-screen of select redox library compounds, FIG. 12B
Description: At 5 days post-fertilization (dpf), fish were fed a light dusting of GEMMA micro 75 while in petri dishes. All noise exposure experiments were conducted at 6 dpf. Larval zebrafish were placed into wells A2-A5 and D2-D5 of a modified 24-well plate (3 fish per well) containing fish water and suspended atop 22 cm of water within the container 2 (stainless-steel canister) with the bottom of the 1 cm of the well plate 5 submerged (as generally shown in FIG. 1). While the well plate is disclosed often with the bottom of the plate being submerged, it is also to be understood that the entire well plate may be submerged without departing from the scope of the invention. Fish were exposed to cavitation for periods ranging from 20 to 120 minutes.
Immediately following cavitation fish were transferred to a 6-well plate 5 (6 fish per well) and kept in the fish facility on a 14 h light/10 h dark cycle for up to 5 post-exposure days. Each post-exposure morning (9-10 am) 50% of fish water was exchanged with fresh fish water and fish were lightly dusted with GEMMA food. Each post-exposure day evening (5-6 pm) fish were transferred to a fresh 6-well plate with completely fresh fish water.
Survival of lateral line hair cells was assessed by vital dye labeling in live fish and direct hair cells counts in live and fixed animals. The vital dye 2-(4-(dimethylamino)styryl)-N-ethylpyridinium iodide (DASPEI) is a marker of mitochondria membrane potential and stains lateral line hair cells. Fish were incubated in 0.005% DASPEI for 15 min, then rinsed twice with fish water and anesthetized with 0.001% MS-222. Using a Leica M165FC fluorescence dissection scope, 10 anterior neuromasts (IO1, IO2, IO3, IO4, M2, MI1, MI2, O2, SO1, and SO2) per fish were assessed based on fluorescent intensity. An intensity score of 2 signifies bright neuromast fluorescence, an intermediate score of 1 represents dim DASPEI labeling, while a 0 neuromast score equates to no neuromast fluorescence at a given neuromast's stereotyped position. The scores from 10 neuromasts per fish were summed such that each fish receives a score between 0 (no neuromast fluorescence) and 20 (full complement of hair cells in all 10 neuromasts).
All inhibitors (to test roles of cell death (including apoptosis, pyroptosis and necroptosis) and inflammation, were added to 6-well plates immediately after cavitation-exposed fish were removed from the device. Inhibitors were refreshed during the same intervals as fish water (twice daily) until the end of the desired exposure window. To test the role of protein synthesis, fish were pulse treated immediately after acoustic trauma for 4 h with the protein synthesis inhibitor cycloheximide (C7698; Sigma Aldrich). In separate experiments, acoustic trauma-exposed fish were continuously treated with either the pan caspase inhibitor Z-VAD-FMK ([…]; Sigma Aldrich) or the antioxidant D-methionine (F7111; UBPBio) to assess the contribution of caspase activation and ROS overproduction, respectively, in the acoustically stimulated lateral line. A small blinded screen was also conducted of select compounds from a larger redox library (BML-2835-0100; Enzo Life Sciences). Compounds chosen had either known protective effects in mammalian models of NIHL (as proof-of concept) or had not been previously tested against NIHL (to identify new protective molecules).

cochlear hair cells [1] = conditions: guinea pigs; cited from earlier work
cochlear hair cells [2] = conditions: mice; cited from earlier work
[3] = cited from earlier work
hair cells = conditions: intracochlear perfusion, guinea pigs; cited from earlier work

With `CSCC[C@@H](N)C(=O)O` [D-methionine] the “protection from cavitation-induced hair cell damage (hair cell survival)” value (from here on “protection … (hair cell survival)”) (lateral line hair cells; 100 μM, FIG. 12A) was “protected lateral line hair cells from cavitation damage”, the “protection … (hair cell survival)” value (lateral line hair cells; 500 μM, FIG. 12A) was “protected lateral line hair cells from cavitation damage” and the “protection … (hair cell survival)” value (lateral line hair cells; 72 hour treatment, concentration not stated at place, FIG. 12A) was “protects lateral line hair cells from cavitation”. The “protection … (hair cell survival)” value (lateral line hair cells; 72 hour treatment, concentration not stated at place, FIG. 12A, listed as D-Methionine) was “robustly protects lateral line hair cells from cavitation”, the “protection of cochlear hair cells from acoustic trauma” value (cochlear hair cells [1]) was “protects cochlear hair cells” and the “protection of cochlear hair cells from acoustic trauma” value (cochlear hair cells [2]) was “protects cochlear hair cells”.

For `CC(=O)N[C@@H](CS)C(=O)O` [N-acetylcysteine], the “prevention of NIHL, clinical trial outcome” value [3] is given as “failed to meet clinical endpoints”.

For `COC(=O)C[C@H](NC(=O)[C@H](C)NC(=O)[C@@H](NC(=O)OCc1ccccc1)C(C)C)C(=O)CF` [Z-VAD, Z-VAD-FMK] (Cbz-Val-Ala-Asp(OMe)-CH2F), the “protection … (hair cell survival)” value (lateral line hair cells; 1 μM, treatment for entire 72-hour post-exposure window, FIG. 11B) is given as “significantly reduced cavitation-induced hair cell damage”, the “protection … (hair cell survival)” value (lateral line hair cells; 72-h treatment starting immediately after acoustic stimulation, concentration not stated, FIG. 11B) is given as “reduced cavitation-induced lateral line hair cell damage; also recorded: robustly protects hair cells from damage” and the “hair cell loss following blast noise trauma” value (hair cells) is given as “reduces hair cell loss”.

In the case of `O=c1cc(-c2ccccc2)oc2cc(O)c(O)c(O)c12` [baicalein], the “protection from cavitation-induced hair cell damage (hair cell survival score vs DMSO control)” value (lateral line hair cells) is reported as “significantly protected lateral line hair cells from cavitation-induced hair cell damage”.

With `CCCCS(=N)(=O)CCC(N)C(=O)O` (centres unmarked) [buthionine sulfoximine] the “protection from cavitation-induced hair cell damage (hair cell survival score vs DMSO control)” value (lateral line hair cells) was “did not confer protection”.

For `C[C@@H]1C[C@@H]([C@H](O)CC2CC(=O)NC(=O)C2)C(=O)[C@@H](C)C1` [cycloheximide], the “protection … (hair cell survival)” value (lateral line hair cells; 4 h pulse treatment immediately after acoustic stimulation, assessed 72 h post-exposure, FIG. 11A) was “prevented hair cell loss; also recorded: reduces hair cell damage” and the “protection … (hair cell survival)” value (lateral line hair cells; 4 h pulse treatment immediately after acoustic stimulation, assessed 72 h post-exposure, FIG. 11A, listed as Cycloheximide) was “protected lateral line hair cells from cavitation in a dose-dependent manner”.

For `CC1=C(C)C(=O)C(CC[C@](C)(O)CCC[C@H](C)CCC[C@H](C)CCCC(C)C)=C(C)C1=O` [d-α-tocopherylquinone], the “protection from cavitation-induced hair cell damage (hair cell survival score vs DMSO control)” value (lateral line hair cells) was “significantly protected lateral line hair cells from cavitation-induced hair cell damage”.

For `CCOC(=O)/C=C/c1ccc(O)c(OC)c1` [ferulic acid ethylester], the “protection from cavitation-induced hair cell damage (hair cell survival score vs DMSO control)” value (lateral line hair cells) was “significantly protected lateral line hair cells from cavitation-induced hair cell damage”.

For `N[C@@H](CCC(=O)N[C@@H](CS)C(=O)NCC(=O)O)C(=O)O` [glutathione], the “protection from cavitation-induced hair cell damage (hair cell survival score vs DMSO control)” value (lateral line hair cells) was “significantly protected lateral line hair cells from cavitation-induced hair cell damage”.
